Publication PMC6199744, “Development of Chemical Proteomics for the Folateome and Analysis of the Kinetoplastid Folateome” (ACS Infectious Diseases, 2018)
Read-outs that look alike come from different tables or passages of the source.

Experiments:
Format in all cases: binding
[1] = biological target: T1, HeLa cell extract proteins (Homo sapiens, UniProt O43175)
T1 construct: endogenous in cells; host or cells: HeLa cell extract
T1 sequence (O43175 1-533): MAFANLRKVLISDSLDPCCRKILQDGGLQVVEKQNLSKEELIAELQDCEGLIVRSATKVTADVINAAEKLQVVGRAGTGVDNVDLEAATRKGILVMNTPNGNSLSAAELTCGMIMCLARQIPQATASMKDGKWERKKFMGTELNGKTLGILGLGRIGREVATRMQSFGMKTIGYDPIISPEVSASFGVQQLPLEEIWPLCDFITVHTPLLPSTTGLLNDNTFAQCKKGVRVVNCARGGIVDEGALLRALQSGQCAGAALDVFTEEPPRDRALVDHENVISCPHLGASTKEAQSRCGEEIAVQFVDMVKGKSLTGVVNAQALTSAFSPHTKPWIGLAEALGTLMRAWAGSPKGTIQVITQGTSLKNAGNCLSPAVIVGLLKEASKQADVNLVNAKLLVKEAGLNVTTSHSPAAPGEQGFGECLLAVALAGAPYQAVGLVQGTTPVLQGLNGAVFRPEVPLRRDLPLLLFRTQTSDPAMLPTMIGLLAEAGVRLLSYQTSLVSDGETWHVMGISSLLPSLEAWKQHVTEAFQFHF

[2] = biological target: T2, HeLa cell extract proteins (Homo sapiens, UniProt O95163)
T2 construct: endogenous in cells; host or cells: HeLa cell extract
T2 sequence (O95163 1-1332): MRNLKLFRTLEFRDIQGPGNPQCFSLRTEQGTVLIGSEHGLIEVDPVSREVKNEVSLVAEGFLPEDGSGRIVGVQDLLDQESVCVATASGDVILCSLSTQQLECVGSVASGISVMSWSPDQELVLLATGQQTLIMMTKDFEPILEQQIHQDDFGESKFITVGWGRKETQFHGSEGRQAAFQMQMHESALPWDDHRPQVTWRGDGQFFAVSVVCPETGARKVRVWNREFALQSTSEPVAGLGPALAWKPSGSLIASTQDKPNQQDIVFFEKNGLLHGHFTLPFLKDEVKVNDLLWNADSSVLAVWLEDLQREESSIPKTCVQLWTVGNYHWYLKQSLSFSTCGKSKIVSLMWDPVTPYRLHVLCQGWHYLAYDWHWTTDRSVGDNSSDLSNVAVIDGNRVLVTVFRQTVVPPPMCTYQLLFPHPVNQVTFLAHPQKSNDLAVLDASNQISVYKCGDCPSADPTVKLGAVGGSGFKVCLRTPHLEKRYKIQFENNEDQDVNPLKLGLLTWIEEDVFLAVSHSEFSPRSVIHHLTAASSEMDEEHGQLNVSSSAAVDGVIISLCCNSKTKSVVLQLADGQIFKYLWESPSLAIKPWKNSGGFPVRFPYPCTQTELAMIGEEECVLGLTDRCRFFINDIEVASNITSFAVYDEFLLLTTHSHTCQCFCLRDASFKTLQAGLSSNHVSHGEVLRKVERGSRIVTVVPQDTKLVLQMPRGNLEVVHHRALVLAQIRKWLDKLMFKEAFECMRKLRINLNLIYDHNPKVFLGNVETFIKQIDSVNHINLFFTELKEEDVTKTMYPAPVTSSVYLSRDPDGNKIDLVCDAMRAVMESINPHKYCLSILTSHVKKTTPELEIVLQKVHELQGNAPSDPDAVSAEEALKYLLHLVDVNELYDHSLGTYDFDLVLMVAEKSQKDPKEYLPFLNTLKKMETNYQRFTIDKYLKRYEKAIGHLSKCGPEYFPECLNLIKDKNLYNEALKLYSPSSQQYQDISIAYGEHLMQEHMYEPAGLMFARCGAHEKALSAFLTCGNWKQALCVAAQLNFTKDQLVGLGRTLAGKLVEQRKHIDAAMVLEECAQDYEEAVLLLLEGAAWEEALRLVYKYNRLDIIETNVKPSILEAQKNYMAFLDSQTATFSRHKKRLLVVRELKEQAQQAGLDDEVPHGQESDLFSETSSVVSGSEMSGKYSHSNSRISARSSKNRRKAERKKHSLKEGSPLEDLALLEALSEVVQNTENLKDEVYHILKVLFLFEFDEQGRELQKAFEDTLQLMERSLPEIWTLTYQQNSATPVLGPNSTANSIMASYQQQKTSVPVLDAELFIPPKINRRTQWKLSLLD

[3] = biological target: T3, HeLa cell extract proteins (Homo sapiens, UniProt P00403)
T3 construct: endogenous in cells; host or cells: HeLa cell extract

[4] = biological target: T4, HeLa cell extract proteins (Homo sapiens, UniProt P08579)
T4 construct: endogenous in cells; host or cells: HeLa cell extract

[5] = biological target: T5, HeLa cell extract proteins (Homo sapiens, UniProt P16070)
T5 construct: endogenous in cells; host or cells: HeLa cell extract

[6] = biological target: T6, HeLa cell extract proteins (Homo sapiens, UniProt P30084)
T6 construct: endogenous in cells; host or cells: HeLa cell extract
T6 sequence (P30084 28-290): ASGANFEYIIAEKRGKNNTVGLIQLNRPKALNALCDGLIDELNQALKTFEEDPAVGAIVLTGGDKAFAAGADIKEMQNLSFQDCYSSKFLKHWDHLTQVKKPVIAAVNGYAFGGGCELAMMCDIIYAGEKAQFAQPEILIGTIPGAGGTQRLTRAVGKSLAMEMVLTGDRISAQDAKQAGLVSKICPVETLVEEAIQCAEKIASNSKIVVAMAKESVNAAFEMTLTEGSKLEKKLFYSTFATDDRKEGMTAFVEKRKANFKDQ

[7] = biological target: T7, HeLa cell extract proteins (Homo sapiens, UniProt P31947)
T7 construct: endogenous in cells; host or cells: HeLa cell extract
T7 sequence (P31947 1-248): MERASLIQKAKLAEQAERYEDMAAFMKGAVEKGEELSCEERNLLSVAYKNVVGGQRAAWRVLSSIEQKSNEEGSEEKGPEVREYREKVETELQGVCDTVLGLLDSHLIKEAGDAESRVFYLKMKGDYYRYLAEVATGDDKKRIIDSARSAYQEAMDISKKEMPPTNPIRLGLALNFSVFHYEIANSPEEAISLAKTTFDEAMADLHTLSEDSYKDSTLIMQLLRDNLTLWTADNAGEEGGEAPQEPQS

[8] = biological target: T8, HeLa cell extract proteins (Homo sapiens, UniProt P35573)
T8 construct: endogenous in cells; host or cells: HeLa cell extract

[9] = HeLa, protein AGL (PUTATIVE UNCHA[…] AGL (FRAGMENT))

T8 sequence (P35573 whole entry): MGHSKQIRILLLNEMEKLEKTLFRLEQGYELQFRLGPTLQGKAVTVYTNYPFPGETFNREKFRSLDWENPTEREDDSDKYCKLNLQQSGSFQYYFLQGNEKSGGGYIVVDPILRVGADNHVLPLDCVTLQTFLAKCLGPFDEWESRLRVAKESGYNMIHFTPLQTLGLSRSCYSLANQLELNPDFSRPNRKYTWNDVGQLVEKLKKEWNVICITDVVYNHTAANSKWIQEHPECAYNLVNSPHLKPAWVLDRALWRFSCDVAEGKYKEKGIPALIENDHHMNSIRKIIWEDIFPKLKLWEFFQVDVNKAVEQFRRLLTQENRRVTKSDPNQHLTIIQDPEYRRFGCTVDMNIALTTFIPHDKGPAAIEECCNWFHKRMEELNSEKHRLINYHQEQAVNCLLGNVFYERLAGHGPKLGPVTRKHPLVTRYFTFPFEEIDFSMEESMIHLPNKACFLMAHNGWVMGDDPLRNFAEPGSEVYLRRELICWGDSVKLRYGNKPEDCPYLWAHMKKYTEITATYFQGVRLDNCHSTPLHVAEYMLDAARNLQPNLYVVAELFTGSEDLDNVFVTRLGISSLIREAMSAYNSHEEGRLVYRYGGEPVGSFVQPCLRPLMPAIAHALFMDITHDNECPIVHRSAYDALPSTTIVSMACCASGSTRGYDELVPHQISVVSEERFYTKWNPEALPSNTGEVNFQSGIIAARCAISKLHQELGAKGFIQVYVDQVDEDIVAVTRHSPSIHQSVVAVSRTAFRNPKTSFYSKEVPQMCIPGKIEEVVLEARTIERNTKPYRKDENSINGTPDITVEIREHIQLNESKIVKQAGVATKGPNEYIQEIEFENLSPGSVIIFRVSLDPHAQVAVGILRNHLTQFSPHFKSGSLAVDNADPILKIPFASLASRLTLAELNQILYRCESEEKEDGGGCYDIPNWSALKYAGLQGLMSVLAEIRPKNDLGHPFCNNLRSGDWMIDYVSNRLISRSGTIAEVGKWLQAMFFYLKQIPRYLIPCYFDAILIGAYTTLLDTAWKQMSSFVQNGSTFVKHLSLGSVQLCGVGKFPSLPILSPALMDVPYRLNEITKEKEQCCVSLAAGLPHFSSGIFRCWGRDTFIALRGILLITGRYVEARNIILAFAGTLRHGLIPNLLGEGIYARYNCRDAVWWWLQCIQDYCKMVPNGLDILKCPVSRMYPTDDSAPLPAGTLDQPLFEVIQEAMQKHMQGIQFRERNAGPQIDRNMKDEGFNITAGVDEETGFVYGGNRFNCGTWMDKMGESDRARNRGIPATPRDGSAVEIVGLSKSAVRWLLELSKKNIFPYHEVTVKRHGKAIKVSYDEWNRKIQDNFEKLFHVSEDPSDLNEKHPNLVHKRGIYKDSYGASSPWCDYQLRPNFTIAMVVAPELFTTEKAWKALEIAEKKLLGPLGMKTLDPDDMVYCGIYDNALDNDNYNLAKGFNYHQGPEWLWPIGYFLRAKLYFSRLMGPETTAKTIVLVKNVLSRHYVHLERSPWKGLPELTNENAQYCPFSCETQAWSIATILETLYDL
T4 sequence (P08579 whole entry): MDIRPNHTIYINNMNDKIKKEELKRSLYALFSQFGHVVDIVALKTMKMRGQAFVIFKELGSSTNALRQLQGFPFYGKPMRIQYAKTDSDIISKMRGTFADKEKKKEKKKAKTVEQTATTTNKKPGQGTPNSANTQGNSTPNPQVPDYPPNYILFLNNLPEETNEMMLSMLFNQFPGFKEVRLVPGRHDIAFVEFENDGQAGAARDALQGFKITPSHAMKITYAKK
T3 sequence (P00403 whole entry): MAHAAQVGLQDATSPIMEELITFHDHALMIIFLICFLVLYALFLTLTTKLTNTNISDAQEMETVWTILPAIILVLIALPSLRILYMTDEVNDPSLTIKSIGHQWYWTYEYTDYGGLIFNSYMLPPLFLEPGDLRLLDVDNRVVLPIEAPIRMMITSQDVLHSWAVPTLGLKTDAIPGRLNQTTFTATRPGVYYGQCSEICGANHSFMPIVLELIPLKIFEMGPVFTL
T5 sequence (P16070 21-742): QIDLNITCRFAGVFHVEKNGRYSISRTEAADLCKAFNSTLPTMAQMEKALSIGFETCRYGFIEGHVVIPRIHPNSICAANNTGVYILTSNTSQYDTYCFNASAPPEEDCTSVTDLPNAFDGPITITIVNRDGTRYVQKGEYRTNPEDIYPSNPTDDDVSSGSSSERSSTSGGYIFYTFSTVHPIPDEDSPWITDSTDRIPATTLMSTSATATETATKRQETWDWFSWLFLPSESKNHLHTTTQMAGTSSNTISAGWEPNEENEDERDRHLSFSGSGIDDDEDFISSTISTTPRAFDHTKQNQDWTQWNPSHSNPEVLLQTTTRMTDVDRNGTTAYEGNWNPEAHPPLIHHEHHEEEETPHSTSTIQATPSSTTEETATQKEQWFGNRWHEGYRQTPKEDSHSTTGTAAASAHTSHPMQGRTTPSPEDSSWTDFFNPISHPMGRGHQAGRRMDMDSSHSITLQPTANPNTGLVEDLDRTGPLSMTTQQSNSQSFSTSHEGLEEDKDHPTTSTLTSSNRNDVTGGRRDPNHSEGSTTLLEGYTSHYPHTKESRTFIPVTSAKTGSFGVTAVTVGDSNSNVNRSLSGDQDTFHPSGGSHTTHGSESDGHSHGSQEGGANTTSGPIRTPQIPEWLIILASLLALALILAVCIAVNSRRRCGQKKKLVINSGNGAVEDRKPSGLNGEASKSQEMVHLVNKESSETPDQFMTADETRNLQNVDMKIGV

Row | SMILES | fold changes relative to vehicle control ([1]; protein PHGDH, HeLa) | fold changes relative to vehicle control ([2]; protein IKBKAP, HeLa) | fold changes relative to vehicle control ([3]; captured protein COX2, HeLa) | fold changes relative to vehicle control ([4]; HeLa, protein SNRPB2) | fold changes relative to vehicle control ([5]; protein CD44, HeLa) | fold changes relative to vehicle control ([6]; protein ECHS1, HeLa) | fold changes relative to vehicle control ([7]; protein SFN, HeLa) | fold changes relative to vehicle control ([8]; HeLa, protein AGL) | fold changes relative to vehicle control ([2]; HeLa, captured protein IKBKAP) | fold changes relative to vehicle control ([3]; protein COX2, HeLa) | fold changes relative to vehicle control ([6]; HeLa, captured protein ECHS1) | fold changes relative to vehicle control ([7]; HeLa, protein SFN) | fold changes relative to vehicle control [8, 9] | also measured
1 | Nc1nc2cccc(-c3ccccc3)c2n1Cc1ccc(Cl)c(Cl)c1 [compound 3] | 1.5 | 1.12 | 1.14 | 0.76 | 1.49 | 0.91 | 0.82 | 1.13 | – | – | – | – | – | –
2 | Nc1nc2[nH]cc(CCc3ccc(C(=O)N[C@@H](CCC(=O)O)C(=O)O)cc3)c2c(=O)[nH]1 [PTX, pemetrexed] | – | – | – | – | – | – | – | – | – | – | – | – | – | fold changes relative to vehicle control [1]: 0.93; fold changes relative to vehicle control [2]: 1.11; fold changes relative to vehicle control [3]: 1.24; fold changes relative to vehicle control [4]: 0.98; fold changes relative to vehicle control [5]: 1.04; fold changes relative to vehicle control [6]: 0.98; fold changes relative to vehicle control [7]: 1.28; fold changes relative to vehicle control [8]: 1.1
3 | Nc1nc2c(c(=O)[nH]1)N(C=O)C(CNc1ccc(C(=O)N[C@@H](CCC(=O)O)C(=O)O)cc1)CN2 (some centres unmarked) [LEU, leucovorin] | 0.88 | – | – | 1 | 1.08 | – | – | – | 1.15 | 1.05 | 0.89 | 1.07 | 1.19 | –
4 | CCCCCCOc1cccc(Cc2cnc(N)nc2N)c1 [compound 2] | 1.25 | 1.3 | 0.95 | 1.43 | 1.42 | 0.92 | 1.83 | 1.08 | – | – | – | – | – | –
5 | NCCOCCOCC(=O)Nc1nc2ncc(CNc3ccc(C(=O)NC(CCC(=O)O)C(=O)O)cc3)nc2c(=O)[nH]1 (centres unmarked) [compound 6] | 1.06 | – | – | 0.93 | 1.3 | – | – | – | 1.2 | 1.33 | 0.76 | 1.45 | 1.09 | –
6 | CCCCCCOc1ccc(Cc2cnc(N)nc2N)cc1 [compound 1] | 0.99 | 1.33 | 0.99 | 1.22 | 1.08 | 0.98 | 1.27 | 1.05 | – | – | – | – | – | –
7 | NCCCNc1ccc(C(=O)NC(CCC(=O)O)C(=O)O)cc1 (centres unmarked) [compound 7] | 1.06 | – | – | 0.77 | 1.06 | – | – | – | 1.01 | 1.27 | 0.91 | 0.97 | 1.17 | –
